The values that follow are results of earlier work, collected in patent publication US20130317108A1, “DERMATOLOGICAL FOAMS OBTAINED FROM A GEL OR SUSPENSION CONTAINING A COMBINATION OF ADAPALENE AND BENZOYL PEROXIDE” (GALDERMA RESEARCH & DEVELOPMENT, priority 2010, published 2013).

For data set [1] the following is noted: in presence of benzoyl peroxide formulation.
The conditions of data set [2]: in suspension (dispersed form) in water and propylene glycol, 90 days of storage.
For data set [3] the following is noted: 40° C.

Read-outs that look alike come from different tables or passages of the source.

In the case of `CC1=C(/C=C/C(C)=C/C=C/C(C)=C/C(=O)O)C(C)(C)CCC1` [tretinoin], the values for the retinoid degraded in data set [1] (within 2 hours) and in data set [1] (within 24 hours) were 50% and 95%, respectively.

Turning to `O=C(OOC(=O)c1ccccc1)c1ccccc1` [benzoyl peroxide], in data set [2], the degradation on storage result is “not degraded”. Moreover, the results for the “degradation time (half-life time)” value in data set [3] (in PEG 400 (0.5 mg/g)), in data set [3] (in ethanol) and in data set [3] (in propylene glycol) were 1.4 days, 29 days and 53 days, respectively.

Regarding `COc1ccc(-c2ccc3cc(C(=O)O)ccc3c2)cc1C12CC3CC(CC(C3)C1)C2` [adapalene, 6-[3-(1-Adamantyl)-4-methoxyphenyl]-2-naphthoic acid], the retinoid degraded entry in data set [1] (within 24 hours) is given as “no degradation”.
